In this assay the target is T1, mAChR M1 (UniProt P08482).
T1 sequence (P08482 1-460): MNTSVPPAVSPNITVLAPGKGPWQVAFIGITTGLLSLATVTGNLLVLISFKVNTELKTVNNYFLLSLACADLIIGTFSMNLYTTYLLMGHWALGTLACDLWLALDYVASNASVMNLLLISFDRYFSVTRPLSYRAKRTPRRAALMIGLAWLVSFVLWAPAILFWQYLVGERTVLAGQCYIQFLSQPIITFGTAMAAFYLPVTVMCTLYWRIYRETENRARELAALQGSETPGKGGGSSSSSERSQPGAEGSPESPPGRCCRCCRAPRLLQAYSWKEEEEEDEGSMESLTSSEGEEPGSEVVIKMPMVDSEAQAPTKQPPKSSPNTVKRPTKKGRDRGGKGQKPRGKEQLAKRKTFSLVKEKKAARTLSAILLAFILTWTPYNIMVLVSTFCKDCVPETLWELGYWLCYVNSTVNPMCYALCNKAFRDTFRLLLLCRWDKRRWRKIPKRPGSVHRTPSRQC
Nature of the assay: mAChR M1 cell-based functional assay (calcium mobilization, Fluo-4, FDSS). Conditions: for Efficacy (% ACh maximum at 30 μM): maximal calcium flux response from curve fit or response at 30 μM compound, as % of the EC80 ACh response; for EC50: positive allosteric modulation of EC20 acetylcholine response, CHO-K1 cells expressing mAChR M1, read-out: Potency (EC50). As for the experimental part:
Chinese hamster ovary (CHO-K1) cells stably expressing rat (r)M1 were purchased from the American Type Culture Collection and cultured according to their indicated protocol. […] To make stable rM2, hM2, rM3, hM4, and rM4 cell lines for use in calcium mobilization assays, these cells also were stably transfected with a chimeric G-protein (Gqi5) (provided by B. R. Conklin, University of California, San Francisco) using Lipofectamine 2000. rM1, hM1, rM3, hM3, rM5, and hM5 cells were grown in Ham's F-12 medium containing 10% heat-inactivated fetal bovine serum (FBS), 20 mM HEPES, and 50 μg/mL G418 sulfate. rM2-Gqi5, hM2-Gqi5, and hM4-Gqi5 cells were grown in the same medium also containing 500 μg/mL Hygromycin B. Stable rM4-Gqi5 cells were grown in DMEM containing 10% heat-inactivated FBS, 20 mM HEPES, 400 μg/mL G418 sulfate, and 500 μg/mL Hygromycin B.
For high throughput measurement of agonist-evoked increases in intracellular calcium, CHO-K1 cells stably expressing muscarinic receptors were plated in growth medium lacking G418 and hygromycin at 15,000 cells/20 μL/well in Greiner 384-well black-walled, tissue culture (TC)-treated, clear-bottom plates (VWR). Cells were incubated overnight at 37° C. and 5% CO2. […] Compound master plates were formatted in an 11 point CRC format (1:3 dilutions) in 100% DMSO with a starting concentration of 10 mM using the BRAVO liquid handler (Agilent). Test compound CRCs were then transferred to daughter plates (240 nL) using the Echo acoustic plate reformatter (Labcyte, Sunnyvale, Calif.) and then diluted into assay buffer (40 μL) to a 2× stock using a Thermo Fisher Combi (Thermo Fisher Scientific, Waltham, Mass.).
Calcium flux was measured using the Functional Drug Screening System (FDSS) 6000 (Hamamatsu Corporation, Tokyo, Japan) as an increase in the fluorescent static ratio. Compounds were applied to cells (20 μL, 2×) using the automated system of the FDSS 6000 at 4 s into the 300 s protocol and the data were collected at 1 Hz. […] Agonist activity was analyzed as a concentration-dependent increase in calcium mobilization upon compound addition. Positive allosteric modulator activity was analyzed as a concentration-dependent increase in the EC20 acetylcholine response. Antagonist activity was analyzed as a concentration-dependent decrease in the EC80 acetylcholine response. Concentration-response curves were generated using a four-parameter logistical equation in XLfit curve fitting software (IDBS, Bridgewater, N.J.) for Excel (Microsoft, Redmond, Wash.) or Prism (GraphPad Software, Inc., San Diego, Calif.).
The calcium mobilization assay was also used to determine “efficacy”. In the context of the assays carried out for the data in Table I, “efficacy” (% ACh at 30 μM) is defined as the maximal response in the calcium flux as determined by the sigmoidal curve fit of the concentration response curve, or in the absence of an acceptable curve fit, the response recorded at 30 μM test compound, stated as a percentage of the response elicited by a concentration of Ach that induces approximately 80% of a maximal (i.e. saturating) ACh response.

In general, EC50 refers to the midpoint of the concentration-response curve.

Take `O=C(CS(=O)(=O)c1cn(Cc2cccc(Br)c2)c2cc(F)cc(F)c12)Nc1cncs1` [compound 38, 2-((1-(3-bromobenzyl)-4,6-difluoro-1H-indol-3-yl)sulfonyl)-N-(thiazol-5-yl)acetamide]: the “Efficacy (% ACh maximum at 30 μM)” value is listed as 49% and the EC50 was > 10 µM. On the same counts, the results for `O=C(CS(=O)(=O)c1cn(Cc2cccc(-n3ccnn3)c2)c2cc(F)cc(F)c12)Nc1ccccn1` [compound 10, 2-((1-(3-(1H-1,2,3-triazol-1-yl)benzyl)-4,6-difluoro-1H-indol-3-yl)sulfonyl)-N-(pyridn-2-yl)acetamide] are 67% and 2.6 µM. On the same counts, the results for `O=C(CS(=O)(=O)c1cn(Cc2cccc(Br)c2)c2cc(F)cc(F)c12)Nc1nc2ccccc2o1` [compound 9, N-(benzo[d]oxazol-2-yl)-2-((1-(3-bromobenzyl)-4,6-difluoro-1H-indol-3-yl)sulfonyl)acetamide] are 44% and 2.5 µM. Turning to `Cc1cc(NC(=O)CS(=O)(=O)c2cn(Cc3ccc(F)nc3)c3ccccc23)no1` [compound 44, 2-{1-[(6-fluoropyridin-3-yl)methyl]-1H-indole-3-sulfonyl}-N-(5-methyl-1,2-oxazol-3-yl)acetamide], the EC50 is > 10 µM. Still for that read-out and setting: then `Cc1cc(NC(=O)CS(=O)(=O)c2cn(Cc3ccc(C(F)(F)F)cc3)c3ccccc23)no1` [compound 53, N-(5-methyl-1,2-oxazol-3-yl)-2-(1-{[4-(trifluoromethyl)phenyl]methyl}-1H-indole-3-sulfonyl)acetamide], with > 10 µM; and `Cc1cc(NC(=O)CS(=O)(=O)c2cn(Cc3cccc(-c4ccc(N5CCCC5)nc4)c3)c3ccccc23)no1` [compound 67, N-(5-methyl-1,2-oxazol-3-yl)-2-[1-({3-[6-(pyrrolidin-1-yl)pyridin-3-yl]phenyl}methyl)-1H-indole-3-sulfonyl]acetamide], with > 10 µM. In the case of `O=C(CS(=O)(=O)c1cn(Cc2cccc(Br)c2)c2cc(F)cc(F)c12)Nc1cccnc1` [compound 35, 2-((1-(3-bromobenzyl)-4,6-difluoro-1H-indol-3-yl)sulfonyl)-N-(pyridin-3-yl)acetamide], the “Efficacy (% ACh maximum at 30 μM)” value worked out at 42% and the EC50 is > 10 µM.

With `Cc1cc(NC(=O)CS(=O)(=O)c2cn(Cc3cccc(-c4ccc(Cl)nc4)c3)c3ccccc23)no1` [compound 64, 2-(1-{[3-(6-chloropyridin-3-yl)phenyl]methyl}-1H-indole-3-sulfonyl)-N-(5-methyl-1,2-oxazol-3-yl)acetamide], the concentration for a half-maximal effect (EC50) was > 10 µM. For the compound `Cc1cc(NC(=O)CS(=O)(=O)c2cn(Cc3cccc(Cl)c3)c3ccccc23)no1` [compound 32, 2-((1-(3-chlorobenzyl)-1H-indol-3-yl)sulfonyl)-N-(5-methylisoxazol-3-yl)acetamide], the “Efficacy (% ACh maximum at 30 μM)” value was found to be 96% and the EC50 was determined as 5.82 µM. Take `Cc1cc(NC(=O)C(Cc2ccc(OC(F)(F)F)cc2)S(=O)(=O)c2cn(Cc3ccc(OC(F)(F)F)cc3)c3ccccc23)no1` (stereo not shown) [compound 74, N-(5-methyl-1,2-oxazol-3-yl)-3-[4-(trifluoromethoxy)phenyl]-2-(1-{[4-(trifluoromethoxy)phenyl]methyl}-1H-indole-3-sulfonyl)propanamide]: the EC50 was > 10 µM. Turning to `O=C(CS(=O)(=O)c1cn(Cc2cccc(-c3ccncc3)c2)c2cc(F)cc(F)c12)Nc1ccccn1` [compound 14, 2-((4,6-difluoro-1-(3-(pyridin-4-yl)benzyl)-1H-indol-3-yl)sulfonyl)-N-(pyridin-2-yl)acetamide], the “Efficacy (% ACh maximum at 30 μM)” value is listed as 55% and the EC50 is 2.9 µM.

Take `Cc1cc(NC(=O)CS(=O)(=O)c2cn(Cc3cccc(-c4cnn(C)c4)c3)c3ccccc23)no1` [compound 12, 2-((1-(3-(1-methyl-1H-pyrazol-4-yl)benzyl)-1H-indol-3-yl)sulfonyl)-N-(5-methylisoxazol-3-yl)acetamide]: the “Efficacy (% ACh maximum at 30 μM)” value amounted to 95% and the EC50 amounted to 2.75 µM.

With `Cc1cc(NC(=O)C(C)S(=O)(=O)c2cn(Cc3cc(Br)cc(Br)c3)c3ccccc23)no1` (stereo not shown) [compound 73, 2-{1-[(3,5-dibromophenyl)methyl]-1H-indole-3-sulfonyl}-N-(5-methyl-1,2-oxazol-3-yl)propanamide], the concentration for a half-maximal effect (EC50) is > 10 µM.

Regarding `Cc1cc(NC(=O)CS(=O)(=O)c2cn(Cc3cccc(F)c3)c3ccccc23)no1` [compound 28, 2-((1-(3-fluorobenzyl)-1H-indol-3-yl)sulfonyl)-N-(5-methylisoxazol-3-yl)acetamide], the EC50 is 5.22 µM. `Cc1cc(NC(=O)CSc2c[nH]c3ccccc23)no1` [compound 41, 2-(1H-indol-3-ylsulfanyl)-N-(5-methyl-1,2-oxazol-3-yl)acetamide]: the EC50 was > 10 µM. Still for that read-out and setting: then `Cc1cc(NC(=O)CS(=O)(=O)c2cn(Cc3ccc4c(c3)OCO4)c3ccccc23)no1` [compound 50, 2-[1-(2H-1,3-benzodioxol-5-ylmethyl)-1H-indole-3-sulfonyl]-N-(5-methyl-1,2-oxazol-3-yl)acetamide], with > 10 µM. In the case of `O=C(CS(=O)(=O)c1cn(Cc2cccc(Br)c2)c2cc(F)cc(F)c12)Nc1ccccn1` [compound 6, 2-((1-(3-bromobenzyl)-4,6-difluoro-1H-indol-3-yl)sulfonyl)-N-(pyridin-2-yl)acetamide], the “Efficacy (% ACh maximum at 30 μM)” value is 62% and the EC50 amounted to 2.4 µM. The like results for `COc1ccc(-c2cccc(Cn3cc(S(=O)(=O)CC(=O)Nc4ccccn4)c4c(F)cc(F)cc43)c2)cn1` [compound 16, 2-((4,6-difluoro-1-(3-(6-methoxypyridin-3-yl)benzyl)-1H-indol-3-yl)sulfonyl)-N-(pyridin-2-yl)acetamide] were, in that order, 42% and 3.3 µM. As to `Cc1cc(NC(=O)C(Cc2ccccc2F)S(=O)(=O)c2cn(Cc3ccccc3F)c3ccccc23)no1` (stereo not shown) [compound 66, 3-(2-fluorophenyl)-2-{1-[(2-fluorophenyl)methyl]-1H-indole-3-sulfonyl}-N-(5-methyl-1,2-oxazol-3-yl)propanamide], the EC50 was > 10 µM. On to `Cc1cc(NC(=O)CS(=O)(=O)c2cn(Cc3cccc(-n4ccnn4)c3)c3cc(F)cc(F)c23)no1` [compound 3, 2-((1-(3-(1H-1,2,3-triazol-1-yl)benzyl)-4,6-difluoro-1H-indol-3-yl)sulfonyl)-N-(5-methylisoxazol-3-yl)acetamide], for which the “Efficacy (% ACh maximum at 30 μM)” value was determined as 72% and the EC50 was found to be 1.5 µM. In the case of `Cc1cc(NC(=O)CS(=O)(=O)c2cn(Cc3cccc(-c4cc[nH]n4)c3F)c3ccccc23)no1` [compound 23, 2-((1-(2-fluoro-3-(1H-pyrazol-3-yl)benzyl)-1H-indol-3-yl)sulfonyl)-N-(5-methylisoxazol-3-yl)acetamide], the “Efficacy (% ACh maximum at 30 μM)” value is on record as 103% and the EC50 came out at 4.4 µM. `Cc1cc(NC(=O)CS(=O)(=O)c2cn(Cc3cccc(-c4cn[nH]c4)c3)c3cc(F)cc(F)c23)no1` [compound 4, 2-((1-(3-(1H-pyrazol-4-yl)benzyl)-4,6-difluoro-1H-indol-3-yl)sulfonyl)-N-(5-methylisoxazol-3-yl)acetamide]: the “Efficacy (% ACh maximum at 30 μM)” value is 102% and the EC50 was found to be 1.85 µM.

The record behind these values is patent US8772509B2, “Indole compounds as positive allosteric modulators of the muscarinic receptor” (Vanderbilt University, priority 2010, dated 2014).
